SMILES strings stand for the structures. Active and inactive are the calls of the source. The rule behind the calls is not given here.

A short description of test [1]: Cytotoxicity against human MCF10A cells after 48 hrs by MTT assay. In kind it is cell-based. Conditions: MCF-10A.
Test [2] deals with MCF7. Nature of the test: Cell cycle arrest in human MCF7 cells assessed as accumulation at M1 phase at 20 uM after 12 to 36 hrs using propidium-iodide staining by flow-cytometry (reference value: 0.95%). Type of test: functional.
For test [3], the system named is MCF7. The test can be described thus: Cytotoxicity against human MCF7 cells after 48 hrs by MTT assay. Conditions: for IC50: MCF7, 48 h. In kind it is functional, cell-based. Background: Tetrazolium assays rely on reduction of a dye to a coloured formazan, in cell work by metabolically active cells.
Test [4] concerns MCF7. The test can be described thus: Cell cycle arrest in human MCF7 cells assessed as accumulation at subG1 phase at 20 uM after 12 to 36 hrs using propidium-iodide staining by flow-cytometry (reference value: 0.41%). Type of test: functional.
The nature of test [5]: Cytotoxicity against human BGC823 cells after 48 hrs by MTT assay. Particulars: BGC-823, 48 h. In kind it is functional, cell-based.
The test system of test [6] is MCF7. Nature of the test: Cytotoxicity against human MCF7 cells at 1 uM by MTT assay. In kind it is functional, cell-based. Particulars: TDE = time-dependent effect.
Test [7] deals with MCF7. The test can be described thus: Induction of apoptosis in human MCF7 cells assessed as condensed chromatin in nucleus at 20 uM after 36 hrs by DAPI staining. In kind it is functional, cell-based.
Test [8] concerns HCT-116. The test can be described thus: Cytotoxicity against human HCT116 cells after 48 hrs by MTT assay. In kind it is functional, cell-based. Particulars: HCT-116, 48 h.
Test [9] relates to MCF7. The test can be described thus: Induction of apoptosis in human MCF7 cells assessed as bubble-shaped regions at 20 uM after 36 hrs by phase-contrast microscopic analysis. Type of test: functional, cell-based.
Test [10] relates to HT-29. Nature of the test: Cytotoxicity against human HT-29 cells after 48 hrs by MTT assay. In kind it is functional, cell-based. Conditions: HT-29, 48 h.

For orientation: IC50 means the concentration at which inhibition is half-maximal. The low end stands for greater potency in that assay, the high end for weaker potency in that assay. Take `COC(C)(C)CCC[C@@](O)(CO[C@@H]1O[C@H](CO)[C@@H](O)[C@H](O)[C@H]1O)[C@H]1CC[C@]2(C)[C@@H]1CC[C@@H]1C3=C(CC[C@]12C)C(C)(C)[C@@H]1CC[C@H]3O1`: the IC50 in test [1] is over 100 µM; in test [3], 6.85 µM; in [5], over 100 µM; in test [8] it was 55.7 µM; in test [10] it was 28.1 µM. For the same compound, the Activity in test [2] was 74.59%; in test [3] it was “Dose-dependent effect”; in [4], 17.09%; in [6], “tde”. Further, the outcome in [7] and in [9] was Active.

On to `CC(C)(O)CCC[C@@H](CO[C@@H]1O[C@H](CO)[C@@H](O)[C@H](O)[C@H]1O)[C@H]1CC[C@]2(C)[C@@H]1CC[C@@H]1C3=C(CC[C@]12C)C(C)(C)[C@@H]1CC[C@H]3O1`, for which the IC50 in test [1] is over 100 µM; in [3], 21.2 µM; in [5], over 100 µM; in test [8], over 100 µM; in [10] it was 32 µM.

For `CC(C)(O)CC/C=C(/CO[C@@H]1O[C@H](CO)[C@@H](O)[C@H](O)[C@H]1O)[C@@H]1CC[C@]2(C)[C@@H]1CC[C@@H]1[C@@]3(C)CC[C@H](O)C(C)(C)[C@@H]3CC[C@]12C`, the IC50 in [1] was over 100 µM; in test [3] it was 46.3 µM; in test [5] it was over 100 µM; in test [8] it was 66.5 µM; in test [10], 30.5 µM.

With `CC(C)(O)CC/C=C(/CO[C@@H]1O[C@H](CO)[C@@H](O)[C@H](O)[C@H]1O)[C@H]1CC[C@]2(C)[C@@H]1CC[C@@H]1[C@@]3(C)CC[C@H](O)C(C)(C)[C@@H]3CC[C@]12C`, the half-maximal inhibitory concentration (IC50) in test [1] is over 100 µM; in test [3] it was 52.4 µM; in test [5], over 100 µM; in [8], 67.3 µM; in [10], 33.6 µM.

For the compound `CC(C)(O)CC/C=C(/CO[C@@H]1O[C@H](CO)[C@@H](O)[C@H](O)[C@H]1O)[C@H]1CC[C@]2(C)[C@@H]1CC[C@@H]1C3=C(CC[C@]12C)C(C)(C)[C@@H]1CC[C@H]3O1`, the IC50 in test [1] was over 100 µM; in test [3], 14.3 µM; in [5], over 100 µM; in test [8], over 100 µM; in test [10] it was 26.1 µM.

The values above are taken from ChEMBL document CHEMBL3600332, “Novel dammarane-type triterpenes isolated from hydrolyzate of total Gynostemma pentaphyllum saponins” (Bioorg Med Chem Lett, 2015).
